In ChEMBL document CHEMBL5241104, “Reactive metabolites of the anticonvulsant drugs and approaches to minimize the adverse drug reaction” (Eur J Med Chem, 2021):

Tests used:
[1] = Toxicity in Swiss albino mouse assessed as median toxicity dose at ip administration; assay type: organism-based; details: in vivo
Mus musculus [2] = assay: Anticonvulsant activity in Swiss albino mouse assessed as protection against PTZ induced seizure at ip administration for 30 mins; assay type: functional; details: 0.5 h
Rattus norvegicus [3] = assay: Anticonvulsant activity in Sprague-Dawley rat assessed as protection against maximal electroshock induced seizure at po administrated for 30 mins; assay type: functional; details: 0.5 h
Rattus norvegicus [4] = assay: Anticonvulsant activity in Sprague-Dawley rat assessed as protection against Sc-Met induced seizure at po administrated for 30 mins; assay type: functional; details: 0.5 h
Rattus norvegicus [5] = assay: Anticonvulsant activity in Sprague-Dawley rat assessed as protection against maximal electroshock induced seizure at ip administration for 0.25 hrs; assay type: functional
[6] = Protective index, ratio of TD50 for toxicity in Sprague-Dawley rat assessed as median toxicity dose at ip administration by rotorod test to ED50 for anticonvulsant activity in Sprague-Dawley rat assessed as protection against maximal electroshock induced seizure at ip administration; assay type: organism-based; details: in vivo, read-out: Ratio TD50/ED50
Mus musculus [7] = assay: Anticonvulsant activity in CF-1 mouse assessed as protection against maximal electroshock induced seizure at ip administrated upto 4 hrs; assay type: functional
[8] = Toxicity in CF-1 mouse assessed as median toxic dose at ip administrated upto 4 hrs; assay type: organism-based; details: in vivo
[9] = Protective index, ratio of TD50 for toxicity in CF-1 mouse assessed as median toxicity dose at ip administration upto 4 hrs by rotorod test to ED50 for anticonvulsant activity in CF-1 mouse assessed as protection against maximal electroshock induced seizure at ip administration upto 4 hrs; assay type: organism-based; details: in vivo, read-out: Ratio TD50/ED50
Rattus norvegicus [10] = assay: Anticonvulsant activity in rat brain assessed as increase in GABA level at 100 mg/kg,ip administrated for 2 hrs by spectrophotometric method; assay type: functional
[11] = Hepatotoxicity in rat assessed as total albumin level at 100 mg/kg,ip administrated for 2 hrs by spectrophotometric method; assay type: toxicity, organism-based; details: in vivo
[12] = Hepatotoxicity in rat assessed as total protein level at 100 mg/kg,ip administrated for 2 hrs by spectrophotometric method; assay type: toxicity, organism-based; details: in vivo
Mus musculus [13] = assay: Anticonvulsant activity in CD-1 mouse assessed as protection against maximal electroshock induced seizure at ip administrated for 2 hrs; assay type: functional
Mus musculus [14] = assay: Anticonvulsant activity in CD-1 mouse assessed as protection against Sc-PTZ induced seizure at ip administrated for 2 hrs; assay type: functional
[15] = Protective index, ratio of TD50 for toxicity in CD-1 mouse assessed as median toxicity dose at ip administration by rotorod test to ED50 for anticonvulsant activity in CD-1 mouse assessed as protection against maximal electroshock induced seizure at ip administration; assay type: organism-based; details: in vivo, read-out: Ratio TD50/ED50
[16] = Protective index, ratio of TD50 for toxicity in CD-1 mouse assessed as median toxicity dose at ip administration by rotorod test to ED50 for anticonvulsant activity in CD-1 mouse assessed as protection against Sc-PTZ induced seizure at ip administration; assay type: organism-based; details: in vivo, read-out: Ratio TD50/ED50
Mus musculus [17] = assay: Anticonvulsant activity in mouse assessed as inhibition of maximal electroshock induced seizure at 200 mg/kg,po administration for 120 mins; assay type: functional; details: 2 h
Mus musculus [18] = assay: Anticonvulsant activity in mouse assessed as protection against maximal electroshock induced seizure at ip administration for 120 mins; assay type: functional; details: 2 h
Rattus norvegicus [19] = assay: Anticonvulsant activity in Sprague-Dawley rat assessed as protection against hippocampal kindling induced seizure at ip administration for 0.25 hrs; assay type: functional
Mus musculus [20] = assay: Anticonvulsant activity in mouse assessed as protection against Sc-pTZ induced seizure at ip administration for 5 mins; assay type: functional

Q: With `CCCC(CCC)c1nnc(Nc2ccccc2)s1` as the molecule, how does the TD50 [1] read?
A: 419 mg/kg

Q: What about the ED50 (Mus musculus [2]) of the same molecule?
A: 187 mg/kg

Q: With `Cc1cc(C(=O)Nc2c(C)cccc2C)no1` as the molecule, how does the ED50 (Rattus norvegicus [3]) read?
A: 5.5 mg/kg

Q: What about the ED50 (Rattus norvegicus [4]) of the same molecule?
A: > 250 mg/kg

Q: Which ED50 (Rattus norvegicus [5]) does the source give for `CCCC(CCC)C(=O)NCCN(C)C` here?
A: 38.6 mg/kg

Q: And the selectivity ratio [6]?
A: 1.8

Q: Which results are given for `CC1CC(Nc2ccon2)=CC(=O)C1C(=O)OC(C)(C)C` (stereo unspecified)?
A: ED50 (Mus musculus [7]): 28.1 mg/kg; TD50 at 4 h [8]: > 500 mg/kg; selectivity ratio at 4 h [9]: > 17.8

Q: For `Nc1ccc(Cl)cc1-c1n[nH]c(=O)n(-c2ccc(O)cc2)c1=O`, which Activity (Rattus norvegicus [10]) is on record?
A: 87.4 mg

Q: What about the Activity [11] of the same molecule?
A: 1.61 g/dL

Q: And the Activity [12]?
A: 4.78 g/dL

Q: For `CC1(c2ccccc2)CC(=O)N(CCC(=O)N2CCN(c3ccccc3F)CC2)C1=O` (stereo unspecified), which ED50 (Mus musculus [13]) is on record?
A: 78.3 mg/kg

Q: And the ED50 (Mus musculus [14])?
A: 114 mg/kg

Q: What about the selectivity ratio [15] of the same molecule?
A: > 3.83

Q: What about the selectivity ratio [16] of the same molecule?
A: > 2.63

Q: What does the source list for `CC1(C)OCC(CO[S+](N)[O-])O1` (stereo unspecified)?
A: inhibition in vivo at 200 mg/kg (Mus musculus [17]): ≥ 80%; ED50 (Mus musculus [18]): 105 mg/kg

Q: With `CCCC(CCC)C(=O)OCCN(C)C` as the molecule, how does the ED50 (Rattus norvegicus [5]) read?
A: 73 mg/kg

Q: And the ED50 (Rattus norvegicus [19])?
A: 168 mg/kg

Q: With `CC(C)(C)NC(=O)C(c1cccc(Br)c1)N1Cc2cnnn2-c2cc(Cl)ccc2C1=O` (stereo unspecified) as the molecule, how does the Activity (Mus musculus [20]) read?
A: 56.94%
